Measured values as given in patent US8173840B2, “Compounds with high therapeutic index” (Signature R&D Holdings, LLC, priority 2003, dated 2012).
Like-named read-outs stand apart in the source and are kept apart here.

Experiments:
[1] = tested on: male albino mice (Swiss strain); experiment: Acetylcholine induced abdominal constriction (writhe) method; format: in vivo, mouse; conditions: gavage
Experimental: Ibuprofen (racemic mixture) and ibuprofen (S)-(+) served as reference controls.
The study was conducted at two dose levels viz. 50 mg and 100 mg/kg body weight along with a vehicle control group. At each dose level 10 animals were used. All the doses were expressed as ibuprofen molar equivalents. The doses used as well as the molar equivalents are presented below.
The efficacy in terms of antagonizing effect on acetylcholine induced single writhe at two dose levels—50.0 and 100.0 mg/kg for the three formulations and reference controls are presented below.

Swiss Albino Mice [2] = conditions: mouse, in vivo
Swiss Albino Mice [3] = experiment: 28-day chronic toxicity study of ibuprofen esters; conditions: 28 days; for No of animals survived: 10 animals per group; for Average Change In body Weight / Percentage Change of body weight: surviving animals
[4] = Solubility of propofol and its amino acid esters in water; conditions: water, solubility in water
albino mouse = experiment: Anesthetic effect in male albino mice, righting reflex as index; conditions: for dose response relation (statistical analysis): low, intermediate, high dose
[5] = tested on: albino mice (Swiss strain); experiment: 14 day repeated dose toxicity study, intravenous route, propofol esters; conditions: for feed intake / behavior, feed consumption, organ weights, histopathology of different organs / reduced body weight gain compared to vehicle control: 14 days; for behavior, feed consumption, organ weights, histopathology of different organs: vs reference group; for animals exhibiting clinical symptoms of toxicity / body weight gain: IV daily 14 days; for body weight gain: compared to vehicle control
[6] = tested on: Spontaneously Hypertensive Rats (SHRs); experiment: Hemodynamics in Spontaneously Hypertensive Rats; format: in vivo, rat
Experimental: ACE inhibitors have been known to be useful in antihypertensive therapy for many years. Some ACE inhibitors are delivered orally as the parent drug (captopril) while others are delivered as pro-drugs in order to obtain clinically useful plasma concentrations. This study provides data on the effect of these various enalapril derivatives on hemodynamics in SHRs when given orally and compared to enalapril.
Briefly, SHRs fitted with right carotid catheters were orally gavaged with 100 mg/kg enalapril or equivalent does of the enalapril derivatives, and the blood pressures were followed continuously up to 3 hours and then a measurement at 24 hours. The animals were conscious throughout the procedure and were placed in a restrainer and hooked up to a pressure transducer and a signal processor. After 3 hours, the animals were placed back into their cage, and blood pressure was finally measured again at 24 hours.

[7] = tested on: fasted male albino rats (Wistar strain); experiment: Gastric mucosal irritation potential of ibuprofen esters; format: in vivo, rat; conditions: two dose levels, 200 mg and 300 mg/kg
human volunteers = experiment: Analgesic and anti-inflammatory effects of S(+)Ibuprofen-L-Threonine Ester in human volunteers; format: in vivo
Experimental: Determination of the analgesic and anti-inflammatory effects of S(+)Ibuprofen-L-Threonine Ester in three human volunteers was conducted as follows:
Two male, age 49 and 50 having severe headache took 1 capsule containing S(+)Ibuprofen-L-Threonine Ester manufacturing and formulation under GMP conditions. The capsule contents were equivalent to 200 mg of racemic Ibuprofen. Relief from headache was reported after 15 min, and complete absence of any pain from headache was reported at the end of 1 hour, which lasted for another 12 hours.
Two males age 49 and 51 took 1 capsule each containing S(+)IbuprofenL-Threonine ester for arthritic knee pain, which was perceptible. […] Such amolearation of pain was further sustained for another 24 hours.

Patient = experiment: Human clinical trial of S(−)Ketorolac-L-Threonine ester (analgesic activity); format: in vivo; conditions: for analgesic activity and side effects (words): 13 mg twice daily, oral capsules, Hydrochloride
Experimental: S(−)Ketorolac-L-Threonine ester capsules were filled using dextrose as the filler. […] For example, 13 mg of S(−)Ketorolac-L-Threonine ester was roughly equivalent to 13 mg of racemic Ketorolac tromethamine in tablet and/or capsule form.
A patient suffering from severe ankolysing spodolytis, arthritis and other inflammatory joint problems was under treatment with Indomethacin, 25 mg twice daily dose. In order the evaluate the analgesic activity of S(−) Ketorolac-L-Threonine ester, the patient was withdrawn from Indomethacin. After 24 hours, the pain returned and they were administered with 13 mg of S(−) Ketorolac L-Threonine ester, once in the morning and once in the evening. This was repeated for 5 days.
About 3 months later, the same above volunteer repeated the experiment. This time, after they went off the indomethacin, only one dose of 13 mg of S(−) Ketorolac-L-Threonine ester was administered. […] This treatment was continued for another 3 days of two capsules of 13 mg each. On the morning of the 6th day, they were switched back to Indomethacin.

[8] = 50.0 mg/kg in terms of Ibuprofen
[9] = 100.0 mg/kg in terms of Ibuprofen
[10] = 1 capsule equivalent to 200 mg racemic Ibuprofen

Compound: CC(C)Cc1ccc(C(C)C(=O)O)cc1 (racemic) [Ibuprofen (racemic mixture), reference compound]
- Number of animals showing absence of single writhe (number of animals per dose = 10), One hour after dosing [1, 8]: 4
- Number of animals showing absence of single writhe (number of animals per dose = 10), Three hours after dosing [1, 8]: 2
- Number of animals showing absence of single writhe (number of animals per dose = 10), One hour after dosing [1, 9]: 6
- Number of animals showing absence of single writhe (number of animals per dose = 10), Three hours after dosing [1, 9]: 6
- animals that died (Swiss Albino Mice [2]; both): 40%
- Mortality (Swiss Albino Mice [2]; female): 3/5
- Mortality (Swiss Albino Mice [2]; male): 1/5
- No of animals survived (Swiss Albino Mice [3]): 6
- Average Change In body Weight (Swiss Albino Mice [3]): 2.97 gms
- Percentage Change of body weight (Swiss Albino Mice [3]): 12.54%

Compound: CC(C)c1cccc(C(C)C)c1OC(=O)C1CCCN1.Cl (stereo in doubt) [Propofol Proline Ester, Pyrrolidine-2(S)-carboxylic acid 2,6-diisopropyl-phenyl ester, hydrochloride]
- solubility [4]: > 100 mg/mL
- anesthetic effect, relative efficacy (albino mouse; Intermediate Dose): more effective
- dose response relation (statistical analysis) (albino mouse): No significant dose—response effects were evident
- feed intake [5]: normal and comparable to that of vehicle control group
- behavior, feed consumption, organ weights, histopathology of different organs [5]: normal and comparable to that of the animals of the reference group
- animals exhibiting clinical symptoms of toxicity [5]: None of the animals
- body weight gain [5]: normal and comparable to that of vehicle control group of animals
- MCV vs Propofol injection (RC) [p<0.05] ([5]; female animals): significantly decreased
- level of urea vs Propofol injection (RC) [p<0.05] ([5]; female animals): significantly decreased
- granulocytes vs Propofol injection (RC) [p<0.05] ([5]; male animals): significantly decreased
- level of sodium vs Propofol injection (RC) [p<0.05] ([5]; male animals): significantly increased
- lymphocytes counts vs Propofol injection (RC) [p<0.05] ([5]; male animals): significantly increased

Compound: CCOC(=O)[C@H](CCc1ccccc1)N[C@@H](C)C(=O)N1CCC[C@H]1C(=O)O [Enalapril]
- reduction of blood pressure ([6]; 100 mg/kg oral gavage, at 3 hours and 24 hours): approximately 20%
- arterial blood pressure ([6]; oral, 100 mg/kg enalapril or equivalent doses): reduced arterial blood pressure

Compound: CC(C)c1cccc(C(C)C)c1OC(=O)CN.Cl [Propofol Glycine Ester, Amino-acetic acid 2,6-diisopropyl-phenyl ester, hydrochloride]
- solubility [4]: > 100 mg/mL
- anesthetic effect, relative efficacy (albino mouse; High Dose): more effective
- anesthetic effect, relative efficacy (albino mouse; Low Dose): more effective
- efficacy in inducing anesthesia based on time required to regain the righting reflex (conclusion) (albino mouse; albino mice): relatively better efficacy
- dose response relation (statistical analysis) (albino mouse): not statistically evident
- feed intake [5]: normal and comparable to that of vehicle control group
- behavior, feed consumption, organ weights, histopathology of different organs [5]: normal and comparable to that of the animals of the reference group
- animals exhibiting clinical symptoms of toxicity [5]: None of the animals
- body weight gain [5]: reduced in both the sexes
- MCV vs Propofol injection (RC) [p<0.05] ([5]; female animals): significantly decreased
- granulocytes counts vs Propofol injection (RC) [p<0.05] ([5]; female animals): significantly increased
- reduced body weight gain compared to vehicle control ([5]; females): 26.94%
- reduced body weight gain compared to vehicle control ([5]; males): 25.87%

Compound: CC(C)Cc1ccc([C@H](C)C(=O)O[C@H](C)[C@H](N)C(=O)O)cc1.Cl [S-(+)-Ibuprofen-L-threonine ester, 2(S)-Amino-3(R)-[2(S)-(4-isobutyl-phenyl)-propionyloxy]-butyric acid]
- Number of animals showing absence of single writhe (number of animals per dose = 10), One hour after dosing [1, 8]: 1
- Number of animals showing absence of single writhe (number of animals per dose = 10), Three hours after dosing [1, 8]: 0
- Number of animals showing absence of single writhe (number of animals per dose = 10), One hour after dosing [1, 9]: 3
- Number of animals showing absence of single writhe (number of animals per dose = 10), Three hours after dosing [1, 9]: 0
- irritation of gastric mucosa [7]: significantly and completely non-toxic to GI mucosa in the rats tested
- amelioration of knee pain sustained for another (human volunteers; 1 capsule): 24 h
- absence of headache pain lasted for another (human volunteers; [10]): 12 h
- complete absence of any pain from headache reported at the end of (human volunteers; [10]): 1 h
- relief from headache reported after (human volunteers; 1 capsule equivalent to 200 mg racemic Ibuprofen, two males with severe headache): 15 min
- arthritic knee pain (human volunteers; 1 capsule, two males, after 12 hours): significant reduction is the pain associated with their right knee
- No of animals survived (Swiss Albino Mice [3]): 10
- animals that died (Swiss Albino Mice [3]; both sexes): none of the animals
- Mortality (Swiss Albino Mice [3]; Female): Nil
- Mortality (Swiss Albino Mice [3]; Male): Nil
- Average Change In body Weight (Swiss Albino Mice [3]): −0.68 gms
- Percentage Change of body weight (Swiss Albino Mice [3]): −3.61%

Compound: S(−)-Ketorolac L-Threonine Ester, Hydrochloride [S(−) Ketorolac L-Threonine ester]
- analgesic activity and side effects (words) (Patient): lack of pain, no gastric irritation symptoms, or other side effects
- analgesic activity and side effects (words) (Patient; listed as S(−) Ketorolac-L-Threonine ester): lack of any pain
- analgesic activity (Patient; only one dose of 13 mg daily, after the 2nd day): complained of the pain resurfacing
